Test results as given in US7105675B2, “Pyridomorphinans, thienomorphinans and use thereof” (Southern Research Institute, priority 1999, dated 2006).
Where two headings read alike, the source gives them in different places.

Experiments:
[1] = tested on: μ opioid receptor (PL017) in GPI; conditions: data taken from Ananthan et al.; cited from earlier work
[2] = target: T1, δ opioid receptor (DPDPE) in MVD (Mus musculus, UniProt P32300); conditions: data taken from Ananthan et al.; cited from earlier work
T1 construct: Electrically-induced smooth muscle contractions of mouse vas deferens and strips of guinea pig ileum longitudinal muscle myenteric plexus were used; from tissue; host or cells: mouse vas deferens (male ICR mice)

κ1 opioid receptor [3] = target: T2, κ1 opioid receptor (Cavia porcellus, UniProt P41144); conditions: read-out: Ki (nM) ± SEM κ1; [3H]U69,593, guinea pig brain membranes; data taken from Ananthan et al.; cited from earlier work
T2 construct: Guinea pig brain membranes were prepared each day using partially thawed guinea pig brain; from tissue; host or cells: guinea pig brain membranes

δ opioid receptor [4] = target: T3, δ opioid receptor (Rattus norvegicus, UniProt P33533); conditions: data taken from Ananthan et al., cited from earlier work
μ opioid receptor [5] = target: T4, μ opioid receptor (Rattus norvegicus, UniProt P33535); conditions: read-out: Ki (nM) ± SEM μ; [3H]DAMGO, rat brain membranes; data taken from Ananthan et al.; cited from earlier work
T4 construct: Rat membranes were prepared each day using a partially thawed frozen rat brain; from tissue; host or cells: rat brain membranes

[6] = tested on: guinea pig ileum longitudinal muscle myenteric plexus; conditions: percentage inhibition of contraction at 1 μM; data taken from Ananthan et al.; cited from earlier work
mouse vas deferens [7] = conditions: percentage inhibition of contraction at 1 μM; data taken from Ananthan et al.; cited from earlier work
κ1 opioid receptor [8] = target: T2, κ1 opioid receptor; experiment: Radioligand binding, kappa sites, displacement of [3H]U69,593 in guinea pig brain membranes
Experimental: (§1) Radioligand Binding Assays. Mu binding sites were labeled using [^3H]DAMGO (1–3 nM). Rat membranes were prepared each day using a partially thawed frozen rat brain which was homogenized with a polytron in 10 mL/brain of ice cold 10 mM Tris-HCl, pH 7.0. Membranes were then centrifuged twice at 30,000 g for 10 min and resuspended with ice-cold buffer following each centrifugation. After the second centrifugation, the membranes were resuspended in 50 mM Tris-HCl, pH 7.4 (50 mL/brain) at 25° C. Incubations proceeded for 2 h at 25° C. in 50 mM Tris-HCl, pH 7.4, along with a protease inhibitor cocktail (PIC). The nonspecific binding was determined using 20 μM of levallorphan. Delta binding sites were labeled using [^3]DADLE (2 nM) and rat brain membranes. Rat membranes were prepared each day using a partially thawed frozen rat brain which was homogenized with a polytron in 10 mL/brain of ice cold 10 mM Tris-HCl, pH 7.0. Membranes were then centrifuged twice at 30,000 g for 10 min and resuspended with ice-cold buffer following each centrifugation. After the second centrifugation, the membranes were resuspended in 50 mM Tris-HCl, pH 7.4 (50 mL/brain) at 25° C. Incubations proceeded for 2 h at 25° C. in 50 mM Tris-HCl pH 7.4, containing 100 mM choline chloride, 3 mM MnCl2, and 100 nM DAMGO to block binding to μ sites, and PIC. Nonspecific binding was determined using 20 μM levallorphan. Kappa binding sites were labeled using [^3H]U69,593 (2 nM). Guinea pig brain membranes were prepared each day using partially thawed guinea pig brain which was homogenized with a polytron in 10 mL/brain of ice cold 10 mM Tris-HCl pH 7.0. The membranes were then centrifuged twice at 30,000 g for 10 min and resuspended with ice-cold buffer following each centrifugation. After the second centrifugation, the membranes were resuspended in 50 mM Tris-HCl, pH 7.4 (75 mL/brain) at 25° C. Incubations proceeded for 2 h at 25° C. in 50 mM Tris-HCl, pH 7.4, containing 1 μg/mL of captopril and PIC. Nonspecific binding was determined using 1 μM U69,593. Each ^3H ligand was displaced by 8–10 concentrations of test drug, two times. Compounds were prepared as 1 mM solution with 10 mM Tris buffer (pH 7.4) containing 10% DMSO before drug dilution. All drug dilutions were done at 10 mM Tris-HCl, pH 7.4, containing 1 mg/mL bovine serum albumin. All washes were done with ice-cold 10 mM Tris-HCl, pH 7.4. The IC50 and slope factor (N) were obtained by using the program MLAB-PC (Civilized Software, Bethesda, Md.). Ki values were calculated according to the equation Ki=IC50/(1+[L]/Kd).

[9] = tested on: guinea pig ileum longitudinal muscle myenteric plexus; experiment: Agonist activity in GPI smooth muscle preparation, inhibition of contraction; format: cell-based; conditions: Cavia porcellus; read-out: agonist activity GPI IC50 (nM) or % max resp
Experimental: (§2) Bioassays in GPI and MVD smooth muscle preparations. Electrically-induced smooth muscle contractions of mouse vas deferens and strips of guinea pig ileum longitudinal muscle myenteric plexus were used. Tissues came from maile ICR mice weighing 25–40 g and male Hartley guinea pigs weighing 250–500 g. The tissues were tied to gold chain with suture silk, suspended in 20 mL baths containing 37° C. oxygenated (95% O2, 5% CO2) Krebs bicarbonate solution (magnesium free for the MVD), and allowed to equilibrate for 15 min. The tissues were then stretched to optimal length previously determined to be 1 g tension (0.5 g for MVD) and allowed to equilibrate for 15 min. The tissues were stimulated transmurally between platinum wire electrodes at 0.1 Hz, 0.4 ms pulses (2-ms pulses for MVD), and supramaximal voltage. An initial dose-response curve of DPDPE or PL-017 was constructed at the start of each assay to establish tissue effects, allowing each tissue to be used as its own control.
(§3) Tissues not producing typical results were not used. Experimental compounds were added to the baths in 14–60 μL volumes. Succeeding doses of argonist were added cumulatively to the bath at 3 minute intervals to produce a concentration-response curve. The tissues were then washed extensively with fresh buffer until the original contraction height was re-established. […] Antagonist effects to DPDPE and PL-017 were assayed after incubation of the tissues with 1 μM concentration of the compound in the bath for 30 minutes. The tissues were then washed with fresh buffer for 30 min, and the agonist dose-response curve was repeated. Rightward shifts in the dose-response curves were calculated by dividing the antagonized dose-response curve IC50 value by the unantagoniced IC50 value. IC50 values represent the mean of two to four tissues. IC50 estimates and their associated standard errors were determined by using a computerized nonlinear least-squares method.

μ opioid receptor [10] = target: T4, μ opioid receptor; experiment: Radioligand binding, mu sites, displacement of [3H]DAMGO in rat brain membranes
Experimental: as §1

[11] = target: T1, δ opioid receptor (DPDPE) in MVD; experiment: Antagonist activity against DPDPE in electrically stimulated mouse vas deferens (MVD); format: cell-based; conditions: for antagonist activity DPDPE (δ) MVD IC50 ratio: 1 μM compound, 30 min incubation, IC50 of DPDPE with antagonist divided by control IC50; for Ke selectivity ratio μδ: Ke GPI (μ) over Ke MVD (δ)
Experimental: as §2, §3

mouse vas deferens [12] = experiment: Agonist activity in MVD smooth muscle preparation, inhibition of contraction; format: cell-based; conditions: read-out: agonist activity MVD IC50 (nM) or % max resp
Experimental: as §2, §3

[13] = tested on: μ opioid receptor (PL017) in GPI; experiment: Antagonist activity against PL-017 in electrically stimulated guinea pig ileum (GPI); format: cell-based; conditions: for antagonist activity PL017 (μ) GPI IC50 ratio: 1 μM compound, 30 min incubation, IC50 of PL-017 with antagonist divided by control IC50; for antagonist activity PL017 (μ) GPI Ke: Ke = [antagonist]/(IC50 ratio − 1), PL-017 as agonist, n = 3
Experimental: as §2, §3

δ opioid receptor [14] = target: T3, δ opioid receptor; experiment: Radioligand binding, delta sites, displacement of [3H]DADLE in rat brain membranes; parameters: Rat membranes were prepared each day using a partially thawed frozen rat brain; from tissue; host or cells: rat brain membranes; conditions: for Selectivity Ratio κ1δ / Selectivity Ratio μ/δ: ratio of Ki values
Experimental: as §1

T3 sequence (P33533 whole entry): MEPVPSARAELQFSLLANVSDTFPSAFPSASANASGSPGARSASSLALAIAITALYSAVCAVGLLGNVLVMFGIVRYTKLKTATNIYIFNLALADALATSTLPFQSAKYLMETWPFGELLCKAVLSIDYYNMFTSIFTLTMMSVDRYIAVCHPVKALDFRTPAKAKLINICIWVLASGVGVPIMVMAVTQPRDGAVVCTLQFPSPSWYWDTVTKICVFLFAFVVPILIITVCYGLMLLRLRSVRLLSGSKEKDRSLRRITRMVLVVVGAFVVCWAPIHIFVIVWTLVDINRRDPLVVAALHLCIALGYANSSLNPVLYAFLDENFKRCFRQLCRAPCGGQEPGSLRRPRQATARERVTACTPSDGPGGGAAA
T4 sequence (P33535 whole entry): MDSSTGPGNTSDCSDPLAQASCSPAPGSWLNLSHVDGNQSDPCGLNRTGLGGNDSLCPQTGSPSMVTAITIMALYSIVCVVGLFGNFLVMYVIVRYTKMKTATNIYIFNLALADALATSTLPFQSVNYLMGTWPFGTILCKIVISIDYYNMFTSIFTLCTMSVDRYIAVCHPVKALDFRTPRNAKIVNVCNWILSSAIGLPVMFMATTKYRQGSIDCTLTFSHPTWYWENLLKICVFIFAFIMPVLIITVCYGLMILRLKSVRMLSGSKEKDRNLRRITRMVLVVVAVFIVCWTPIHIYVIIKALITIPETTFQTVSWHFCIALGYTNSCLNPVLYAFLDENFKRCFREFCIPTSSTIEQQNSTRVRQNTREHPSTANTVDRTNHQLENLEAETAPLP
T1 sequence (P32300 whole entry): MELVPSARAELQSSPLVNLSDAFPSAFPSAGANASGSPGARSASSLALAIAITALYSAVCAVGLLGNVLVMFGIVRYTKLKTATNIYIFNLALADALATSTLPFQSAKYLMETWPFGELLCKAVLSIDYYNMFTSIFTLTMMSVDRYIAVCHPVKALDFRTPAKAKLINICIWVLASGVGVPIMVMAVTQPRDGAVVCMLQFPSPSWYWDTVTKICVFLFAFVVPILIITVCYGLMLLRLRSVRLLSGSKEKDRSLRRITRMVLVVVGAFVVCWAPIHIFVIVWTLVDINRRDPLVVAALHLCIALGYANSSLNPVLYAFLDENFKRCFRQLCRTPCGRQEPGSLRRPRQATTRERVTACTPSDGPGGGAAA
T2 sequence (P41144 whole entry): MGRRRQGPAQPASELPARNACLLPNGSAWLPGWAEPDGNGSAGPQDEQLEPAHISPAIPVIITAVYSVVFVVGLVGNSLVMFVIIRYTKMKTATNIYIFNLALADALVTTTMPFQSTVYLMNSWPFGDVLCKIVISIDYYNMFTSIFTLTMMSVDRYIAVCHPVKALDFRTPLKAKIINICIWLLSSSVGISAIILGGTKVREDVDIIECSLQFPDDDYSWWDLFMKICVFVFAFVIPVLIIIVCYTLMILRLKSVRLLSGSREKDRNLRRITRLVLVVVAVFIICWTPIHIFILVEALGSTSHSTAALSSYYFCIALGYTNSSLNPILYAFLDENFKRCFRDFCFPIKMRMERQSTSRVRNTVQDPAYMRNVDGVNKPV

| SMILES | Ki (κ1 opioid receptor [8]) [nM] | inhibition at 1 µM [9] [%] | Ki (μ opioid receptor [10]) [nM] | Kb [11] [nM] | antagonist activity DPDPE (δ) MVD IC50 ratio [11] | Ke selectivity ratio μδ [11] | inhibition at 1 µM (mouse vas deferens [12]) [%] | antagonist activity PL017 (μ) GPI IC50 ratio [13] | antagonist activity PL017 (μ) GPI Ke [13] [nM] | Ki (δ opioid receptor [14]) [nM] | Selectivity Ratio κ1δ (δ opioid receptor [14]; thienomorphinans) | Selectivity Ratio μ/δ (δ opioid receptor [14]; thienomorphinans) | other results |
| --- | --- | --- | --- | --- | --- | --- | --- | --- | --- | --- | --- | --- | --- |
| Oc1ccc2c3c1OC1c4ncccc4CC4(O)C(C2)N(CC2CC2)CCC314 (stereo not drawn) [Compound 7a] | – | – | – | – | – | – | – | – | – | – | – | – | antagonist activity PL017 (μ) GPI IC50 ratio [1]: 7.08 ± 3.44; antagonist activity PL017 (μ) GPI Ke [1]: 164 nM; Ke selectivity ratio μδ [2]: 4.4; antagonist activity DPDPE (δ) MVD IC50 ratio [2]: 27.9 ± 1.2; antagonist activity DPDPE (δ) MVD Ke [2]: 37 nM; Ki (κ1 opioid receptor [3]): 8.8 ± 0.69 nM; Selectivity Ratio κ1δ (δ opioid receptor [4]; ratio of Ki values): 11; Selectivity Ratio μ/δ (δ opioid receptor [4]; ratio of Ki values): 1.9; Ki (δ opioid receptor [4]; read-out: Ki (nM) ± SEM δ, [3H]DADLE, rat brain membranes): 0.78 ± 0.06 nM; Ki (μ opioid receptor [5]): 1.5 ± 0.09 nM; agonist activity GPI IC50 (nM) or % max resp [6]: 0%; agonist activity MVD IC50 (nM) or % max resp (mouse vas deferens [7]): 0% |
| N#Cc1c(N)sc2c1[C@@H]1Oc3c(O)ccc4c3[C@@]13CCN(CC1CC1)[C@H](C4)[C@]3(O)C2 [Compound 8a, 5′-Amino-4′-cyano-17-(cyclopropylmethyl)-6,7-didehydro-3,14-dihydroxy-4,5α-epoxythieno [2′,3′:7,6]morphinan] | 1.5 ± 0.12 | 0 | 5.5 ± 0.2 | 9.6 | 109.6 ± 12.1 | 0.9 | 0 | 160.3 ± 41.6 | 8.7 | 2.6 ± 0.11 | 0.6 | 2.1 | – |
| O=[N+]([O-])c1cnc2c(c1)CC1(O)C3Cc4ccc(O)c5c4C1(CCN3CC1CC1)C2O5 (stereo not drawn) [Compound 7e, 17-(Cyclopropylmethyl)-6,7-didehydro-3,14-dihydroxy-4,5α-epoxy-5′-nitropyrido[2′,3′:6,7]morphinan] | 92 ± 12.8 | 0 | 17.5 ± 2 | 51 | 20.7 ± 4.2 | 5.3 | 14 | 4.7 ± 0.59 | 271 | 5.5 ± 0.67 | – | – | Selectivity Ratio κ1δ (δ opioid receptor [14]; pyridomorphinans): 17; Selectivity Ratio μ/δ (δ opioid receptor [14]; pyridomorphinans): 3.2 |
| CCOC(=O)c1c(N)sc2c1[C@@H]1Oc3c(O)ccc4c3[C@@]13CCN(CC1CC1)[C@H](C4)[C@]3(O)C2 [Compound 8c, 5′-Amino-4′-carbethoxy-17-(cyclopropylmethyl)-6,7-didehydro-3,14-dihydroxy-4,5α-epoxythieno[2′,3′:7,6]morphinan] | 9 ± 0.81 | 0 | 20 ± 1 | 68 | 19.8 ± 6.6 | 0.4 | 11 | 46.0 ± 21.9 | 26 | 5 ± 0.2 | 1.8 | 4.0 | – |
